# Assay results: patent US8569344B2, “N-piperidinyl acetamide derivatives as calcium channel blockers” (Zalicus Pharmaceuticals Ltd., priority 2008, dated 2013)
# Experiments:
# [1] = target: T1, human α1G T-type channels (Homo sapiens, UniProt O43497); test: T-type calcium channel block, whole cell patch clamp in HEK cells (α1G); type: cell-based; conditions: HEK cells, patch clamp, mainly non-inactivated protocol; values above 10 μM shown as 10 μM, below 0.30 μM shown as 0.30 μM; read-out: T-type Calcium Channel Block α1G IC50
# T1 construct: expressed in transfected cells; host or cells: HEK 293
# [2] = target: T2, human α1H T-type channels (Homo sapiens, UniProt O95180); test: T-type calcium channel block, whole cell patch clamp in HEK cells (α1H); type: cell-based; conditions: HEK cells, patch clamp, mainly non-inactivated protocol; values above 10 μM shown as 10 μM; read-out: T-type Calcium Channel Block α1H IC50
# T2 construct: expressed in transfected cells; host or cells: HEK 293
# T2 sequence (O95180 whole entry): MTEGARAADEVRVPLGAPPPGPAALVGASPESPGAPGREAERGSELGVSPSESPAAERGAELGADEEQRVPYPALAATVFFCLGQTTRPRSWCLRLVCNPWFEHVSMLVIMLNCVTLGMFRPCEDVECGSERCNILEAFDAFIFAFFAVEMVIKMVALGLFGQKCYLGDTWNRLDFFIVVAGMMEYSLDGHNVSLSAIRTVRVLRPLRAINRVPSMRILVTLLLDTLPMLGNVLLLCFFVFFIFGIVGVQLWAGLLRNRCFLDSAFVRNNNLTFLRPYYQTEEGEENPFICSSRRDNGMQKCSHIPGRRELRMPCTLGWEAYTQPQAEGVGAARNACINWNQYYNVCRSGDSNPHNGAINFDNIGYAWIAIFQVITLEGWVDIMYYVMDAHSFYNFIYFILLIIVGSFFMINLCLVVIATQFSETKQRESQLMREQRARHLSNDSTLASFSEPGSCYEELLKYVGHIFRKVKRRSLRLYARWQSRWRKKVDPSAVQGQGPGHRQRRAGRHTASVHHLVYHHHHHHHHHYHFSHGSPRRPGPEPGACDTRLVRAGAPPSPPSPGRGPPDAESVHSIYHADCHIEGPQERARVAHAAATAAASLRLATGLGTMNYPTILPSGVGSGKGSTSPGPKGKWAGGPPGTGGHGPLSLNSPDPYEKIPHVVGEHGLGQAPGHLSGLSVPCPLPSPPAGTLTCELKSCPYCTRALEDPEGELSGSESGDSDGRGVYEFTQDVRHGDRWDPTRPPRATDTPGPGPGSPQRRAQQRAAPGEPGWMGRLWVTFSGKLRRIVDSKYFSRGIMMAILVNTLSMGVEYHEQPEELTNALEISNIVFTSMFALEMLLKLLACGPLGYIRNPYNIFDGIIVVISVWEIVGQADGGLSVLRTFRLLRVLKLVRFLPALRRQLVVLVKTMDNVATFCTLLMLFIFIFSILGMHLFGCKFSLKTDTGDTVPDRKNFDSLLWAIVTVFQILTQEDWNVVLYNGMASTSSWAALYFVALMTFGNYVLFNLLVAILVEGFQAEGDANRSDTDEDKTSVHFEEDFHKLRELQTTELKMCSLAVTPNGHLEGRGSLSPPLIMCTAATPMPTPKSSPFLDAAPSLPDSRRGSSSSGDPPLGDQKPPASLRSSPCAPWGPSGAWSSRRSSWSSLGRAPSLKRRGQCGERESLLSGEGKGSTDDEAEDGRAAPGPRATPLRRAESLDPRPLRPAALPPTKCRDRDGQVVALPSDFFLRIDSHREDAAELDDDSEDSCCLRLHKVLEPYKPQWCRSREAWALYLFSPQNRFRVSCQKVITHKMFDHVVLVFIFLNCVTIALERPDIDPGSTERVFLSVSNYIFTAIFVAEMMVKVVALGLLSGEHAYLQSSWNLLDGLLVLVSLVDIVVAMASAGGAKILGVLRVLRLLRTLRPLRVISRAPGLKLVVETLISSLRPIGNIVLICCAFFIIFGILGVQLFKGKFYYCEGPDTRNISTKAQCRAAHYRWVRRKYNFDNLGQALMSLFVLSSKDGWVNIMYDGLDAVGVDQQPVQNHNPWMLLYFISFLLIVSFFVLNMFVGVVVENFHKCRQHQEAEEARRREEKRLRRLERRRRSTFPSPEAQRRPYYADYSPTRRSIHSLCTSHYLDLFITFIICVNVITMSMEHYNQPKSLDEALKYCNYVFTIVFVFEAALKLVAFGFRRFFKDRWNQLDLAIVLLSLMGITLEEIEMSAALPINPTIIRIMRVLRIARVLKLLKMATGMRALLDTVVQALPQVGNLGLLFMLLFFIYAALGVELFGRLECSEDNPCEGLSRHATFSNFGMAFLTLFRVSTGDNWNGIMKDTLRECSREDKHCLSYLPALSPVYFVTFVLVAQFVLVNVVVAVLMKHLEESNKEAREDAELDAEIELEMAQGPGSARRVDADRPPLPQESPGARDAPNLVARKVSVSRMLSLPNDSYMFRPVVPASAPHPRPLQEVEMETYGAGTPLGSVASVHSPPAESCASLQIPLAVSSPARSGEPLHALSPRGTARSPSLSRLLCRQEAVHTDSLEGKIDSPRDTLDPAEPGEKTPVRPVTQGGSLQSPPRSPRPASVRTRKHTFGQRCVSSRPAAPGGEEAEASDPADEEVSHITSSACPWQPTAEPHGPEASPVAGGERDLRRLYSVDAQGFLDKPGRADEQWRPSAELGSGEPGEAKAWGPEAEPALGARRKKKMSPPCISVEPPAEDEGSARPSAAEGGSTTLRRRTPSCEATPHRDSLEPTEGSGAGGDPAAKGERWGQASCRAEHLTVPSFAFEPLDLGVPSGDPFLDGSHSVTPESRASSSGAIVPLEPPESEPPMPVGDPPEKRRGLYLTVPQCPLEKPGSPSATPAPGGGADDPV
# T1 sequence (O43497 whole entry): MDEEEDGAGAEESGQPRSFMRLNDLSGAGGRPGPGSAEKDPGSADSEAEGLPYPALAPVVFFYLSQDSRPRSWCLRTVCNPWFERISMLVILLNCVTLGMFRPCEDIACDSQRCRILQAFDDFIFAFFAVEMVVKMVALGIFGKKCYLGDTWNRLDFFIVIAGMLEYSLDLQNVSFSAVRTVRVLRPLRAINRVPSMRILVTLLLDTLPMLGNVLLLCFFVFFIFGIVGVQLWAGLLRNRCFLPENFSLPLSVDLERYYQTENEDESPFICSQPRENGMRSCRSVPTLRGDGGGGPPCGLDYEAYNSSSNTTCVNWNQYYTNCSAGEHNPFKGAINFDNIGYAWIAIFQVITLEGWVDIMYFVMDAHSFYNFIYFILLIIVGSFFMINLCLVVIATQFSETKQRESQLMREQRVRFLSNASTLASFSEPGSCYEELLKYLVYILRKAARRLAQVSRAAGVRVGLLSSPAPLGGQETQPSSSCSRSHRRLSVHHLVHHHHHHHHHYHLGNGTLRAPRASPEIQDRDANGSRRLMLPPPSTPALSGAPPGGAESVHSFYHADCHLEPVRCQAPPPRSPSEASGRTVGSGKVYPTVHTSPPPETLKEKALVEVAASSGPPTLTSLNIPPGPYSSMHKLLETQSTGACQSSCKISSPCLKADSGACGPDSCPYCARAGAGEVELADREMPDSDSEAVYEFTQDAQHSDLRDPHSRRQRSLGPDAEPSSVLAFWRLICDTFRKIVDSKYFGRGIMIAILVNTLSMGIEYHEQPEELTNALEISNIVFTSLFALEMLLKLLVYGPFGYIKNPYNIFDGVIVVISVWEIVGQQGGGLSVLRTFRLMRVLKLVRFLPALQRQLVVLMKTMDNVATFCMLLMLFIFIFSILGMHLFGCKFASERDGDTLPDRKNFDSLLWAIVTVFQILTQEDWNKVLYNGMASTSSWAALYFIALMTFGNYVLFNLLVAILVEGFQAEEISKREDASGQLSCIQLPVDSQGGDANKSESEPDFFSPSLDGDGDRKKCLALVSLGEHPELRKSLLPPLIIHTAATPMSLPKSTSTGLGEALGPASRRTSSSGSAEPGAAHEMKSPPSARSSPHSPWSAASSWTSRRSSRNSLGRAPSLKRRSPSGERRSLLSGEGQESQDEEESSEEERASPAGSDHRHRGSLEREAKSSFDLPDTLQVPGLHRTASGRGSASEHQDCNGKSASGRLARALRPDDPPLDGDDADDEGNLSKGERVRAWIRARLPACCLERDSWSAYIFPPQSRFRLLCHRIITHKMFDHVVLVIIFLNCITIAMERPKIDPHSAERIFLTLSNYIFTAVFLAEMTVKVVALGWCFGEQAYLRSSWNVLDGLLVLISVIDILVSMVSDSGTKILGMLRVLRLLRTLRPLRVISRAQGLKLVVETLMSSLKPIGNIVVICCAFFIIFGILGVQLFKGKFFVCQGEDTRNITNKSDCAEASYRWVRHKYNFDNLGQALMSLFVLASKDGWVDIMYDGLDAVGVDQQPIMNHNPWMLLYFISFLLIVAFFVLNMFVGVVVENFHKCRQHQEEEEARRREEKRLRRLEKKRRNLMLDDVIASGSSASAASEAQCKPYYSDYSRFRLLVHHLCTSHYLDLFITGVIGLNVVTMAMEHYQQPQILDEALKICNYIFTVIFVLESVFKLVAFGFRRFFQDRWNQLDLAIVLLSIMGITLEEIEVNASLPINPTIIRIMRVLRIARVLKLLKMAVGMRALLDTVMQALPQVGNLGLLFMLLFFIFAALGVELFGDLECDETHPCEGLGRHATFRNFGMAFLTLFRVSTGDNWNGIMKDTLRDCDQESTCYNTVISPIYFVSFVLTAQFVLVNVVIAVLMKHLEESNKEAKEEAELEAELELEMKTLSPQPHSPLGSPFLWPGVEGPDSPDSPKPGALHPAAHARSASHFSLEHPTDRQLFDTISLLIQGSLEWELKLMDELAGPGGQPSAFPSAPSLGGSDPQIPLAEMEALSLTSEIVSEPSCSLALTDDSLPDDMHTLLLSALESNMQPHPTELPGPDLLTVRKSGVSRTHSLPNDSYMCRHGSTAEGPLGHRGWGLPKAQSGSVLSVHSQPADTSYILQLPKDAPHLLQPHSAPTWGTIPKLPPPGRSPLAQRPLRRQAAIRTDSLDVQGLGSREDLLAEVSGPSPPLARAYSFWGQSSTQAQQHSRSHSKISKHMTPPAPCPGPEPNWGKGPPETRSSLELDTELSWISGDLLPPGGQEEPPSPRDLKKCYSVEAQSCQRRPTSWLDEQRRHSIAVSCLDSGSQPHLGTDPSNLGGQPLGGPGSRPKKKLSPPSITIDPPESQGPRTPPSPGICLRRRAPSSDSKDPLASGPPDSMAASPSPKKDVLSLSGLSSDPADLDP
Compound,IC50 [1] [nM],IC50 [2] [nM]
"Cc1cc(C)cc(C(=O)NCC2CCN(CC(=O)N(C)C(C)(C)C)CC2)c1 [Compound 539, N-((1-(2-(tert-butyl(methyl)amino)-2-oxoethyl)piperidin-4-yl)methyl)-3,5-dimethylbenzamide]",1680,510
"CC(C)(C)C(=O)NCCN1CCC(CNC(=O)/C=C/c2cc(F)cc(F)c2)CC1 [Compound 297, (E)-3-(3,5-difluorophenyl)-N-((1-(2-pivalamidoethyl)piperidin-4-yl)methyl)acrylamide]",> 10000,> 10000
"Cc1cc(C)cc(C(=O)NCC2CCN(CCNC(=O)OC(C)(C)C)CC2)c1 [Compound 42, tert-butyl 2-(4-((3,5-dimethylbenzamido)methyl)piperidin-1-yl)ethylcarbamate]",1640,760
"COc1cc(F)cc(C(=O)NCC2CCN(CC(=O)N(C)C3(C)CCC3)CC2)c1 [Compound 584, 3-fluoro-5-methoxy-N-((1-(2-(methyl(1-methylcyclobutyl)amino)-2-oxoethyl)piperidin-4-yl)methyl)benzamide]",< 300,280
"COc1cc(OC)cc(C(=O)NCC2CCN(CC(=O)NC(C)C)CC2)c1 [Compound 439, N-((1-(2-(isopropylamino)-2-oxoethyl)piperidin-4-yl)methyl)-3,5-dimethoxybenzamide]",3280,2170
"CCCNC(=O)CN1CCC(CNC(=O)c2cccc(Cl)c2)CC1 [Compound 451, 3-chloro-N-((1-(2-oxo-2-(propylamino)ethyl)piperidin-4-yl)methyl)benzamide]",> 10000,> 10000
"CC1(NC(=O)CN2CCC(CNC(=O)c3ccc(F)cc3)CC2)CCC1 [Compound 529, 4-fluoro-N-((1-(2-(1-methylcyclobutyl-amino)-2-oxoethyl)piperidin-4-yl)methyl)benzamide]",5440,2510
"O=C(NCC1CCN(CCNC(=O)C2(C(F)(F)F)CC2)CC1)c1cccc(OC(F)(F)F)c1 [Compound 474, 3-(trifluoromethoxy)-N-((1-(2-(1-(trifluoromethyl)cyclopropanecarbox-amido)ethyl)piperidin-4-yl)methyl) benzamide]",< 300,40
"CC(C)(NC(=O)CN1CCC(CNC(=O)c2cccc(C(F)(F)F)c2)CC1)C(F)(F)F [Compound 458, N-((1-(2-oxo-2-(1,1,1-trifluoro-2-methylpropan-2-ylamino)ethyl)piperidin-4-yl)methyl)-3-(trifluoromethyl)benzamide]",< 300,40
"CC(C(=O)NC1CCCC1)N1CCC(CNC(=O)c2cc(F)cc(Cl)c2)CC1 (stereo not drawn) [Compound 549, 3-chloro-N-((1-(1-(cyclopentylamino)-1-oxopropan-2-yl)piperidin-4-yl)methyl)-5-fluorobenzamide]",< 300,110
"CC(C(=O)NC1(C)CCCCC1)N1CCC(CNC(=O)c2cc(F)cc(Cl)c2)CC1 (stereo not drawn) [Compound 550, 3-chloro-5-fluoro-N-((1-(1-(1-methylcyclohexylamino)-1-oxopropan-2-yl)piperidin-4-yl)methyl)benzamide]",< 300,20
"O=C(/C=C/c1cc(F)cc(F)c1)NCC1CCN(CCNC(=O)CCC(F)(F)F)CC1 [Compound 314, (E)-N-(2-(4-((3-(3,5-difluorophenyl)acrylamido)methyl)piperidin-1-yl)ethyl)-4,4,4-trifluorobutanamide]",> 10000,9240
"CCCNC(=O)CN1CCC(CNC(=O)c2cccc(Br)c2)CC1 [Compound 450, 3-bromo-N-((1-(2-oxo-2-(propylamino)ethyl)piperidin-4-yl)methyl)benzamide]",8880,> 10000
"COc1cc(Cl)cc(C(=O)NCC2CCN(CCNS(=O)(=O)C(F)(F)F)CC2)c1 [Compound 326, 3-chloro-5-methoxy-N-((1-(2-(trifluoromethylsulfonamido)ethyl)piperidin-4-yl)methyl)benzamide]",> 10000,6990
"O=C(NCC1CCN(CCNS(=O)(=O)C2CC2)CC1)c1cccc(OC(F)(F)F)c1 [Compound 234, N-((1-(2-(cyclopropanesulfonamido)ethyl)piperidin-4-yl)methyl)-3-(trifluoromethoxy)benzamide]",1450,970
"CC(C)(C)S(=O)(=O)NCCN1CCC(CNC(=O)c2cc(F)cc(Cl)c2)CC1 [Compound 565, 3-chloro-N-((1-(2-(1,1-dimethylethylsulfonamido)ethyl)piperidin-4-yl)methyl)-5-fluoro-benzamide]",310,220
"O=C(CN1CCC(CNC(=O)c2cccc(F)c2)CC1)NC1CCCC1 [Compound 535, N-((1-(2-(cyclopentylamino)-2-oxoethyl)piperidin-4-yl)methyl)-3-fluorobenzamide]",3620,2140

# Next, values leading:
IC50 [1] [nM],IC50 [2] [nM],Compound
< 300,340,"O=C(NCC1CCN(CCNS(=O)(=O)C2CCCC2)CC1)c1cc(F)cc(C(F)(F)F)c1 [Compound 307, N-((1-(2-(cyclopentanesulfonamido)ethyl)piperidin-4-yl)methyl)-3-fluoro-5-(trifluoromethyl)benzamide]"
2060,2360,"NC1(C(=O)NCCN2CCC(CNC(=O)c3cc(F)cc(C(F)(F)F)c3)CC2)CCCCC1 [Compound 570, N-((1-(2-(1-aminocyclohexanecarboxamido)ethyl)piperidin-4-yl)methyl)-3-fluoro-5-(trifluoromethyl)benzamide]"
< 300,240,"CC1CCC(C(=O)N(C)CCN2CCC(CNC(=O)c3cc(F)cc(C(F)(F)F)c3)CC2)CC1 (stereo not drawn) [Compound 519, N-((1-(2-(N,4-dimethylcyclohexanecarboxamido)ethyl)piperidin-4-yl)methyl)-3-fluoro-5-(trifluoromethyl)benzamide]"
< 300,160,"CC(C)(C)OC(=O)NCCN1CCC(CNC(=O)c2cc(Cl)cc(C(F)(F)F)c2)CC1 [Compound 40, tert-butyl 2-(4-((3-chloro-5-(trifluoromethyl)benzamido)methyl)piperidin-1-yl)ethylcarbamate]"
9700,5590,"CCC1CCCN1CC(=O)N1CCC(CNC(=O)c2cc(F)cc(C(F)(F)F)c2)CC1 (stereo not drawn) [Compound 280, N-((1-(2-(2-ethylpyrrolidin-1-yl)acetyl)piperidin-4-yl)methyl)-3-fluoro-5-(trifluoromethyl)benzamide]"
> 10000,> 10000,"CCCNC(=O)CN1CCC(CNC(=O)c2cccc(C(F)(F)F)c2)CC1 [Compound 449, N-((1-(2-oxo-2-(propylamino)ethyl)piperidin-4-yl)methyl)-3-(trifluoromethyl)benzamide]"
< 300,190,"CN(CCN1CCC(CNC(=O)c2cc(F)cc(C(F)(F)F)c2)CC1)C(=O)C1(C(F)(F)F)CC1 [Compound 520, 3-fluoro-N-((1-(2-(N-methyl-1-(trifluoromethyl)cyclopropanecarbox-amido)ethyl)piperidin-4-yl)methyl)-5-(trifluoromethyl)benzamide]"
770,580,"COc1cc(F)cc(C(=O)NCC2CCN(CC(=O)N3CCC[C@@H]3C(F)(F)F)CC2)c1 [Compound 505, (R)-3-fluoro-5-methoxy-N-((1-(2-oxo-2-(2-(trifluoromethyl)pyrrolidin-1-yl)ethyl)piperidin-4-yl)methyl) benzamide]"
7420,4450,"CCOC1CCN(C(=O)CN2CCC(CNC(=O)c3cc(C(F)(F)F)cc(C(F)(F)F)c3)CC2)CC1 [Compound 305, N-((1-(2-(4-ethoxypiperidin-1-yl)-2-oxoethyl)piperidin-4-yl)methyl)-3,5-bis(trifluoromethyl)benzamide]"
630,1870,"CCCNC(=O)NC1(CN2CCC(CNC(=O)c3cc(C(F)(F)F)cc(C(F)(F)F)c3)CC2)CCCC1 [Compound 13, N-((1-((1-(3-propylureido)cyclopentyl)methyl)piperidin-4-yl)methyl)-3,5-bis(trifluoromethyl)benzamide]"
390,870,"CCCCCNCC(=O)N1CCC(CNC(=O)c2cc(F)cc(C(F)(F)F)c2)CC1 [Compound 267, 3-fluoro-N-((1-(2-(pentylamino)acetyl)piperidin-4-yl)methyl)-5-(trifluoromethyl)benzamide]"
6310,620,"O=C(CCC(F)(F)F)NCCN1CCC(CNC(=O)c2cccc(C(F)(F)F)c2)CC1 [Compound 313, N-((1-(2-(4,4,4-trifluorobutanamido)ethyl)piperidin-4-yl)methyl)-3-(trifluoromethyl)benzamide]"
< 300,600,"COc1cc(C(=O)NCC2CCN(CCNC(=O)C(C)(C)C)CC2)cc(C(F)(F)F)c1 [Compound 303, 3-methoxy-N-((1-(2-pivalamidoethyl)piperidin-4-yl)methyl)-5-(trifluoromethyl)benzamide]"
1370,1770,"CC(C)(F)CNC(=O)CN1CCC(CNC(=O)c2cc(F)cc(C(F)(F)F)c2)CC1 [Compound 556, 3-fluoro-N-((1-(2-(2-fluoro-2-methylpropylamino)-2-oxoethyl)piperidin-4-yl)methyl)-5-(trifluoromethyl)benzamide]"
460,220,"CN(CCN1CCC(CNC(=O)c2cc(F)cc(C(F)(F)F)c2)CC1)C(=O)C1CCCC1 [Compound 516, 3-fluoro-N-((1-(2-(N-methylcyclopentanecarboxamido)ethyl)piperidin-4-yl)methyl)-5-(trifluoromethyl)benzamide]"
< 300,150,"CC(C)(C)OC(=O)NCCN1CCC(CNC(=O)c2cc(Br)cc(C(F)(F)F)c2)CC1 [Compound 41, tert-butyl 2-(4-((3-bromo-5-(trifluoromethyl)benzamido)methyl)piperidin-1-yl)ethylcarbamate]"
